{"source": "patent US6339042B1", "about": "“Herbicidal N-cyclohexadienyl heteroaryloxyacetamides” (American Cyanamid Co., priority 1999, dated 2002)", "key": {"Amaranthus tuberculatus [1]": {"system": "Amaranthus tuberculatus", "assay": "Pre-emergence herbicidal evaluation, AMATA", "format": "in vivo", "settings": "three weeks after treatment", "description": "(§1) The treated pots are then placed on greenhouse benches, watered and cared for in accordance with conventional greenhouse procedures."}, "Alopecurus myosuroides [2]": {"system": "Alopecurus myosuroides", "assay": "Pre-emergence herbicidal evaluation, ALOMY", "format": "in vivo", "settings": "three weeks after treatment", "description": "as §1"}, "Apera spica venti [3]": {"system": "Apera spica venti", "assay": "Pre-emergence herbicidal evaluation, APESV", "format": "in vivo", "settings": "three weeks after treatment", "description": "as §1"}, "Echinochloa crus-galli [4]": {"system": "Echinochloa crus-galli", "assay": "Pre-emergence herbicidal evaluation, ECHCG", "format": "in vivo", "settings": "three weeks after treatment", "description": "as §1"}, "Setaria viridis [5]": {"system": "Setaria viridis", "assay": "Pre-emergence herbicidal evaluation, SETVI", "format": "in vivo", "settings": "three weeks after treatment", "description": "as §1"}, "Lolium perenne [6]": {"system": "Lolium perenne", "assay": "Pre-emergence herbicidal evaluation, LOLPE", "format": "in vivo", "settings": "three weeks after treatment", "description": "as §1"}, "Triticum aestivum [7]": {"system": "Triticum aestivum", "assay": "Pre-emergence herbicidal evaluation, TRZAW", "format": "in vivo", "settings": "three weeks after treatment", "description": "as §1"}, "Hordeum vulgare [8]": {"system": "Hordeum vulgare", "assay": "Pre-emergence herbicidal evaluation, HORVW", "format": "in vivo", "settings": "three weeks after treatment", "description": "as §1"}, "Zea mays [9]": {"system": "Zea mays", "assay": "Pre-emergence herbicidal evaluation, ZEAMX", "format": "in vivo", "settings": "three weeks after treatment", "description": "as §1"}, "Glycine max [10]": {"system": "Glycine max", "assay": "Pre-emergence herbicidal evaluation, GLXMA", "format": "in vivo", "settings": "three weeks after treatment", "description": "as §1"}, "Oryza sativum [11]": {"system": "Oryza sativum", "assay": "Pre-emergence herbicidal evaluation, ORYSA", "format": "in vivo", "settings": "three weeks after treatment", "description": "as §1"}, "Amaranthus tuberculatus [12]": {"system": "Amaranthus tuberculatus", "assay": "Post-emergence herbicidal evaluation, AMATA", "format": "in vivo", "settings": "three weeks after treatment"}, "Galium aparine": {"system": "Galium aparine", "assay": "Post-emergence herbicidal evaluation, GALAP", "settings": "three weeks after treatment"}, "Alopecurus myosuroides [13]": {"system": "Alopecurus myosuroides", "assay": "Post-emergence herbicidal evaluation, ALOMY", "settings": "three weeks after treatment"}, "Apera spica venti [14]": {"system": "Apera spica venti", "assay": "Post-emergence herbicidal evaluation, APESV", "settings": "three weeks after treatment"}, "Echinochloa crus-galli [15]": {"system": "Echinochloa crus-galli", "assay": "Post-emergence herbicidal evaluation, ECHCG", "settings": "three weeks after treatment"}, "Setaria viridis [16]": {"system": "Setaria viridis", "assay": "Post-emergence herbicidal evaluation, SETVI", "settings": "three weeks after treatment"}, "Lolium perenne [17]": {"system": "Lolium perenne", "assay": "Post-emergence herbicidal evaluation, LOLPE", "settings": "three weeks after treatment"}, "Triticum aestivum [18]": {"system": "Triticum aestivum", "assay": "Post-emergence herbicidal evaluation, TRZAW", "settings": "three weeks after treatment"}, "Hordeum vulgare [19]": {"system": "Hordeum vulgare", "assay": "Post-emergence herbicidal evaluation, HORVW", "settings": "three weeks after treatment"}, "Zea mays [20]": {"system": "Zea mays", "assay": "Post-emergence herbicidal evaluation, ZEAMX", "settings": "three weeks after treatment"}, "Glycine max [21]": {"system": "Glycine max", "assay": "Post-emergence herbicidal evaluation, GLXMA", "settings": "three weeks after treatment"}, "Oryza sativum [22]": {"system": "Oryza sativum", "assay": "Post-emergence herbicidal evaluation, ORYSA", "settings": "three weeks after treatment", "experimental": "The compounds of the invention are tested for pre- and post-emergence herbicidal activity.\nEach pot is examined three weeks after treatment and phytotoxicity is assessed according to the rating system set forth below.\nThese acetone solutions are diluted with water and the resulting formulations applied at dosage levels equivalent of about 0.4 to 0.1 kg per hectare of test compound per pot. After spraying the plants are placed on greenhouse benches and are cared for in the usual manner, commensurate with conventional greenhouse practices."}}}
{"smiles": "CC1=CC(N(C)C(=O)COc2nnc(C(F)(F)F)s2)=CC(C)(C)C1", "note": "[Example 3]", "values": [{"measurement": "phytotoxicity rating AMATA", "setting": "Amaranthus tuberculatus [1]; 0.100 kg/ha", "value": "0 (0 - No effect)"}, {"measurement": "phytotoxicity rating AMATA", "setting": "Amaranthus tuberculatus [1]; 0.200 kg/ha", "value": "0 (0 - No effect)"}, {"measurement": "phytotoxicity rating AMATA", "setting": "Amaranthus tuberculatus [1]; 0.400 kg/ha", "value": "6 (6 - Herbicidal effect)"}, {"measurement": "phytotoxicity rating AMATA", "setting": "Amaranthus tuberculatus [1]; 0.800 kg/ha", "value": "8 (8 - Approaching complete kill)"}, {"measurement": "phytotoxicity rating ALOMY", "setting": "Alopecurus myosuroides [2]; 0.100 kg/ha", "value": "6 (6 - Herbicidal effect)"}, {"measurement": "phytotoxicity rating ALOMY", "setting": "Alopecurus myosuroides [2]; 0.200 kg/ha", "value": "8 (8 - Approaching complete kill)"}, {"measurement": "phytotoxicity rating ALOMY", "setting": "Alopecurus myosuroides [2]; 0.400 kg/ha", "value": "8 (8 - Approaching complete kill)"}, {"measurement": "phytotoxicity rating ALOMY", "setting": "Alopecurus myosuroides [2]; 0.800 kg/ha", "value": "9 (9 - Complete kill)"}, {"measurement": "phytotoxicity rating APESV", "setting": "Apera spica venti [3]; 0.100 kg/ha", "value": "3 (3 - Moderate effect)"}, {"measurement": "phytotoxicity rating APESV", "setting": "Apera spica venti [3]; 0.200 kg/ha", "value": "6 (6 - Herbicidal effect)"}, {"measurement": "phytotoxicity rating APESV", "setting": "Apera spica venti [3]; 0.400 kg/ha", "value": "8 (8 - Approaching complete kill)"}, {"measurement": "phytotoxicity rating APESV", "setting": "Apera spica venti [3]; 0.800 kg/ha", "value": "9 (9 - Complete kill)"}, {"measurement": "phytotoxicity rating ECHCG", "setting": "Echinochloa crus-galli [4]; 0.100 kg/ha", "value": "6 (6 - Herbicidal effect)"}, {"measurement": "phytotoxicity rating ECHCG", "setting": "Echinochloa crus-galli [4]; 0.200 kg/ha", "value": "8 (8 - Approaching complete kill)"}, {"measurement": "phytotoxicity rating ECHCG", "setting": "Echinochloa crus-galli [4]; 0.400 kg/ha", "value": "8 (8 - Approaching complete kill)"}, {"measurement": "phytotoxicity rating ECHCG", "setting": "Echinochloa crus-galli [4]; 0.800 kg/ha", "value": "9 (9 - Complete kill)"}, {"measurement": "phytotoxicity rating SETVI", "setting": "Setaria viridis [5]; 0.100 kg/ha", "value": "6 (6 - Herbicidal effect)"}, {"measurement": "phytotoxicity rating SETVI", "setting": "Setaria viridis [5]; 0.200 kg/ha", "value": "8 (8 - Approaching complete kill)"}, {"measurement": "phytotoxicity rating SETVI", "setting": "Setaria viridis [5]; 0.400 kg/ha", "value": "8 (8 - Approaching complete kill)"}, {"measurement": "phytotoxicity rating SETVI", "setting": "Setaria viridis [5]; 0.800 kg/ha", "value": "9 (9 - Complete kill)"}, {"measurement": "phytotoxicity rating LOLPE", "setting": "Lolium perenne [6]; 0.100 kg/ha", "value": "3 (3 - Moderate effect)"}, {"measurement": "phytotoxicity rating LOLPE", "setting": "Lolium perenne [6]; 0.200 kg/ha", "value": "7 (7 - Good herbicidal effect)"}, {"measurement": "phytotoxicity rating LOLPE", "setting": "Lolium perenne [6]; 0.400 kg/ha", "value": "9 (9 - Complete kill)"}, {"measurement": "phytotoxicity rating LOLPE", "setting": "Lolium perenne [6]; 0.800 kg/ha", "value": "9 (9 - Complete kill)"}, {"measurement": "phytotoxicity rating TRZAW", "setting": "Triticum aestivum [7]; 0.100 kg/ha", "value": "0 (0 - No effect)"}, {"measurement": "phytotoxicity rating TRZAW", "setting": "Triticum aestivum [7]; 0.200 kg/ha", "value": "1 (1 - Trace effect)"}, {"measurement": "phytotoxicity rating TRZAW", "setting": "Triticum aestivum [7]; 0.400 kg/ha", "value": "1 (1 - Trace effect)"}, {"measurement": "phytotoxicity rating TRZAW", "setting": "Triticum aestivum [7]; 0.800 kg/ha", "value": "3 (3 - Moderate effect)"}, {"measurement": "phytotoxicity rating HORVW", "setting": "Hordeum vulgare [8]; 0.100 kg/ha", "value": "0 (0 - No effect)"}, {"measurement": "phytotoxicity rating HORVW", "setting": "Hordeum vulgare [8]; 0.200 kg/ha", "value": "1 (1 - Trace effect)"}, {"measurement": "phytotoxicity rating HORVW", "setting": "Hordeum vulgare [8]; 0.400 kg/ha", "value": "1 (1 - Trace effect)"}, {"measurement": "phytotoxicity rating HORVW", "setting": "Hordeum vulgare [8]; 0.800 kg/ha", "value": "4 (4 - Injury)"}, {"measurement": "phytotoxicity rating ZEAMX", "setting": "Zea mays [9]; 0.100 kg/ha", "value": "0 (0 - No effect)"}, {"measurement": "phytotoxicity rating ZEAMX", "setting": "Zea mays [9]; 0.200 kg/ha", "value": "1 (1 - Trace effect)"}, {"measurement": "phytotoxicity rating ZEAMX", "setting": "Zea mays [9]; 0.400 kg/ha", "value": "3 (3 - Moderate effect)"}, {"measurement": "phytotoxicity rating ZEAMX", "setting": "Zea mays [9]; 0.800 kg/ha", "value": "7 (7 - Good herbicidal effect)"}, {"measurement": "phytotoxicity rating GLXMA", "setting": "Glycine max [10]; 0.100 kg/ha", "value": "0 (0 - No effect)"}, {"measurement": "phytotoxicity rating GLXMA", "setting": "Glycine max [10]; 0.200 kg/ha", "value": "0 (0 - No effect)"}, {"measurement": "phytotoxicity rating GLXMA", "setting": "Glycine max [10]; 0.400 kg/ha", "value": "0 (0 - No effect)"}, {"measurement": "phytotoxicity rating GLXMA", "setting": "Glycine max [10]; 0.800 kg/ha", "value": "0 (0 - No effect)"}, {"measurement": "phytotoxicity rating ORYSA", "setting": "Oryza sativum [11]; 0.100 kg/ha", "value": "1 (1 - Trace effect)"}, {"measurement": "phytotoxicity rating ORYSA", "setting": "Oryza sativum [11]; 0.200 kg/ha", "value": "3 (3 - Moderate effect)"}, {"measurement": "phytotoxicity rating ORYSA", "setting": "Oryza sativum [11]; 0.400 kg/ha", "value": "6 (6 - Herbicidal effect)"}, {"measurement": "phytotoxicity rating ORYSA", "setting": "Oryza sativum [11]; 0.800 kg/ha", "value": "6 (6 - Herbicidal effect)"}, {"measurement": "phytotoxicity rating AMATA", "setting": "Amaranthus tuberculatus [12]; 0.200 kg/ha", "value": "0 (0 - No effect)"}, {"measurement": "phytotoxicity rating AMATA", "setting": "Amaranthus tuberculatus [12]; 0.400 kg/ha", "value": "0 (0 - No effect)"}, {"measurement": "melting point", "value": "54 to 57", "unit": "°C"}, {"measurement": "phytotoxicity rating GALAP", "setting": "Galium aparine; 0.200 kg/ha", "value": "4 (4 - Injury)"}, {"measurement": "phytotoxicity rating GALAP", "setting": "Galium aparine; 0.400 kg/ha", "value": "5 (5 - Definite injury)"}, {"measurement": "phytotoxicity rating ALOMY", "setting": "Alopecurus myosuroides [13]; 0.200 kg/ha", "value": "4 (4 - Injury)"}, {"measurement": "phytotoxicity rating ALOMY", "setting": "Alopecurus myosuroides [13]; 0.400 kg/ha", "value": "7 (7 - Good herbicidal effect)"}, {"measurement": "phytotoxicity rating APESV", "setting": "Apera spica venti [14]; 0.200 kg/ha", "value": "6 (6 - Herbicidal effect)"}, {"measurement": "phytotoxicity rating APESV", "setting": "Apera spica venti [14]; 0.400 kg/ha", "value": "3 (3 - Moderate effect)"}, {"measurement": "phytotoxicity rating ECHCG", "setting": "Echinochloa crus-galli [15]; 0.200 kg/ha", "value": "1 (1 - Trace effect)"}, {"measurement": "phytotoxicity rating ECHCG", "setting": "Echinochloa crus-galli [15]; 0.400 kg/ha", "value": "4 (4 - Injury)"}, {"measurement": "phytotoxicity rating SETVI", "setting": "Setaria viridis [16]; 0.200 kg/ha", "value": "0 (0 - No effect)"}, {"measurement": "phytotoxicity rating SETVI", "setting": "Setaria viridis [16]; 0.400 kg/ha", "value": "0 (0 - No effect)"}, {"measurement": "phytotoxicity rating LOLPE", "setting": "Lolium perenne [17]; 0.200 kg/ha", "value": "7 (7 - Good herbicidal effect)"}, {"measurement": "phytotoxicity rating LOLPE", "setting": "Lolium perenne [17]; 0.400 kg/ha", "value": "7 (7 - Good herbicidal effect)"}, {"measurement": "phytotoxicity rating TRZAW", "setting": "Triticum aestivum [18]; 0.200 kg/ha", "value": "1 (1 - Trace effect)"}, {"measurement": "phytotoxicity rating TRZAW", "setting": "Triticum aestivum [18]; 0.400 kg/ha", "value": "3 (3 - Moderate effect)"}, {"measurement": "phytotoxicity rating HORVW", "setting": "Hordeum vulgare [19]; 0.200 kg/ha", "value": "0 (0 - No effect)"}, {"measurement": "phytotoxicity rating HORVW", "setting": "Hordeum vulgare [19]; 0.400 kg/ha", "value": "2 (2 - Slight effect)"}, {"measurement": "phytotoxicity rating ZEAMX", "setting": "Zea mays [20]; 0.200 kg/ha", "value": "0 (0 - No effect)"}, {"measurement": "phytotoxicity rating ZEAMX", "setting": "Zea mays [20]; 0.400 kg/ha", "value": "0 (0 - No effect)"}, {"measurement": "phytotoxicity rating GLXMA", "setting": "Glycine max [21]; 0.200 kg/ha", "value": "2 (2 - Slight effect)"}, {"measurement": "phytotoxicity rating GLXMA", "setting": "Glycine max [21]; 0.400 kg/ha", "value": "4 (4 - Injury)"}, {"measurement": "phytotoxicity rating ORYSA", "setting": "Oryza sativum [22]; 0.200 kg/ha", "value": "0 (0 - No effect)"}, {"measurement": "phytotoxicity rating ORYSA", "setting": "Oryza sativum [22]; 0.400 kg/ha", "value": "2 (2 - Slight effect)"}]}
